Laboratory results taken from patent US6737383B1, “Herbicidal oxadiazolidines” (priority 1999, dated 2004).

Experiments:
bamyardgrass = experiment: Test B flood test barnyardgrass; type: in vivo, Echinochloa crus-galli
Outline: (§1)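 Plants were grown to the 2-leaf stage before treatment with test chemical, then held in a greenhouse for twelve to sixteen days. Injury was visually rated against untreated controls on a 0–10 scale, where 0 is no effect and 10 is complete control.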

smallflower flatsedge = experiment: Test B flood test smallflower flatsedge; type: in vivo, Cyperus difformis
Outline: as §1

purple nutsedge = experiment: Test B pre/postemergence purple nutsedge; type: in vivo, Cyperus rotundus; conditions: for Plant response rating, Nutsedge: scale of 0 to 10 where 0 is no effect and 10 is complete control
Outline: (§2)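 Response is a visual 0-to-10 score relative to untreated plants, where 0 means no effect and 10 means complete control, taken twelve to sixteen days after application. Treatments went onto soil at planting and onto foliage of 1- to 4-leaf plants, using a surfactant-containing non-phytotoxic solvent.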

duck salad = experiment: Test B flood test duck salad; type: in vivo, Heteranthera limosa
Outline: as §1

wild oat = experiment: Test B pre/postemergence wild oat; type: in vivo, Avena fatua; conditions: for Plant response rating, Wild oats: scale of 0 to 10 where 0 is no effect and 10 is complete control
Outline: as §2

rape = experiment: Test B pre/postemergence rape; type: in vivo, Brassica napus; conditions: for Plant response rating, Rape: scale of 0 to 10 where 0 is no effect and 10 is complete control
Outline: as §2

surinam grass = experiment: Test B pre/postemergence surinam grass; type: in vivo, Brachiaria decumbens
Outline: as §2

cocklebur = experiment: Test B pre/postemergence cocklebur; type: in vivo, Xanthium strumarium
Outline: as §2

bedstraw = experiment: Test B pre/postemergence bedstraw; type: in vivo, Galium aparine; conditions: Preemergence, Rate 250 g/ha; scale 0 to 10, 0 is no effect, 10 is complete control
Outline: as §2

wheat = experiment: Test B pre/postemergence wheat; type: in vivo, Triticum aestivum; conditions: for Plant response rating, Wheat: scale of 0 to 10 where 0 is no effect and 10 is complete control
Outline: as §2

sugar beet = experiment: Test B pre/postemergence sugar beet; type: in vivo, Beta vulgaris; conditions: for Plant response rating, Sugarbeets: scale of 0 to 10 where 0 is no effect and 10 is complete control
Outline: as §2

soybean = experiment: Test B pre/postemergence soybean; type: in vivo, Glycine max; conditions: for Plant response rating, Soybean: scale of 0 to 10 where 0 is no effect and 10 is complete control
Outline: as §2

velvetleaf = experiment: Test B pre/postemergence velvetleaf; type: in vivo, Abutilon theophrasti; conditions: for Plant response rating, Velvetleaf: scale of 0 to 10 where 0 is no effect and 10 is complete control
Outline: as §2

rice = experiment: Test B flood test rice; type: in vivo, Oryza sativa
Outline: as §1

crabgrass = experiment: Test B pre/postemergence crabgrass; type: in vivo, Digitaria sanguinalis
Outline: as §2

blackgrass = experiment: Test B pre/postemergence blackgrass; type: in vivo, Alopecurus myosuroides
Outline: as §2

corn = experiment: Test B pre/postemergence corn; type: in vivo, Zea mays
Outline: as §2

[1] = Rate 62 g/ha, flood test species, Pre-emergence, visual evaluation after twelve to sixteen days
[2] = Rate 125 g/ha, under heading Pre-emergence, flood test species, visual evaluation after twelve to sixteen days
[3] = Rate 250 g/ha, Pre-emergence (flood test species), scale 0 to 10, 0 is no effect, 10 is complete control
[4] = Rate 500 g/ha, Pre-emergence, flood test species, scale 0 to 10 (0 no effect, 10 complete control)
[5] = Postemergence, Rate 250 g/ha, scale 0 to 10
[6] = Preemergence, Rate 250 g/ha, scale 0 to 10, 0 is no effect, 10 is complete control
[7] = Preemergence, Rate 500 g/ha, scale 0 to 10, 0 is no effect, 10 is complete control
[8] = Rate 62 g/ha, Postemergence, scale 0 to 10 (0 no effect, 10 complete control)
[9] = Rate 125 g/ha, Postemergence, scale 0 to 10, 0 is no effect, 10 is complete control
[10] = Postemergence, Rate 500 g/ha, scale of 0 to 10 where 0 is no effect and 10 is complete control
[11] = Preemergence, Rate 62 g/ha, scale of 0 to 10 where 0 is no effect and 10 is complete control
[12] = Preemergence, Rate 125 g/ha, scale of 0 to 10 where 0 is no effect and 10 is complete control

CC(C)N(C(=O)n1oc(=O)n(CCC[Si](C)(C)C)c1=O)c1ccc(F)cc1 [Compound 461]
0: Plant response rating, Barnyardgrass (0 to 10 scale, 0 is no effect, 10 is complete control) (bamyardgrass; [1]) | Barnyardgrass plant response rating (0 to 10 scale, 0 is no effect, 10 is complete control) (bamyardgrass; [2]) | Barnyardgrass plant response rating (bamyardgrass; [3]) | Barnyardgrass plant response rating (bamyardgrass; [4]) | Plant response rating, S. Flatsedge (0 to 10 scale, 0 is no effect, 10 is complete control) (smallflower flatsedge; [1]) | S. Flatsedge plant response rating (0 to 10 scale, 0 is no effect, 10 is complete control) (smallflower flatsedge; [2]) | S. Flatsedge plant response rating (smallflower flatsedge; [3]) | S. Flatsedge plant response rating (smallflower flatsedge; [4]) | Nutsedge plant response rating (purple nutsedge; [5]) | Plant response rating, Nutsedge (purple nutsedge; Preemergence, Rate 62 g/ha) | Plant response rating, Nutsedge (purple nutsedge; Preemergence, Rate 125 g/ha) | Nutsedge plant response rating (purple nutsedge; [6]) | Nutsedge plant response rating (purple nutsedge; [7]) | Nutsedge plant response rating (purple nutsedge; [8]) | Nutsedge plant response rating (purple nutsedge; [9]) | Plant response rating, Ducksalad (0 to 10 scale, 0 is no effect, 10 is complete control) (duck salad; [1]) | Ducksalad plant response rating (0 to 10 scale, 0 is no effect, 10 is complete control) (duck salad; [2]) | Ducksalad plant response rating (duck salad; [3]) | Ducksalad plant response rating (duck salad; [4]) | Wild oats plant response rating (wild oat; [5]) | Plant response rating, Wild oats (wild oat; Preemergence, Rate 62 g/ha) | Plant response rating, Wild oats (wild oat; Preemergence, Rate 125 g/ha) | Wild oats plant response rating (wild oat; [6]) | Wild oats plant response rating (wild oat; [7]) | Wild oats plant response rating (wild oat; [8]) | Wild oats plant response rating (wild oat; [9]) | Rape plant response rating (rape; [5]) | Plant response rating, Rape (rape; Preemergence, Rate 62 g/ha) | Plant response rating, Rape (rape; Preemergence, Rate 125 g/ha) | Rape plant response rating (rape; [6]) | Rape plant response rating (rape; [7]) | Rape plant response rating (rape; [8]) | Rape plant response rating (rape; [9]) | B. signalgrass plant response rating (surinam grass; Postemergence, Rate 250 g/ha, scale 0 to 10, 0 no effect, 10 complete control) | B. signalgrass plant response rating (surinam grass; [10]) | Plant response rating, B. signalgrass (surinam grass; [11]) | Plant response rating, B. signalgrass (surinam grass; [12]) | B. signalgrass plant response rating (surinam grass; [6]) | B. signalgrass plant response rating (surinam grass; [7]) | B. signalgrass plant response rating (surinam grass; [8]) | B. signalgrass plant response rating (surinam grass; [9]) | Cocklebur plant response rating (cocklebur; [5]) | Plant response rating, Cocklebur (cocklebur; [11]) | Plant response rating, Cocklebur (cocklebur; [12]) | Cocklebur plant response rating (cocklebur; [6]) | Cocklebur plant response rating (cocklebur; [7]) | Cocklebur plant response rating (cocklebur; [8]) | Cocklebur plant response rating (cocklebur; [9]) | Bedstraw plant response rating (bedstraw) | Wheat plant response rating (wheat; [5]) | Plant response rating, Wheat (wheat; Preemergence, Rate 62 g/ha) | Plant response rating, Wheat (wheat; Preemergence, Rate 125 g/ha) | Wheat plant response rating (wheat; [6]) | Wheat plant response rating (wheat; [7]) | Wheat plant response rating (wheat; [8]) | Wheat plant response rating (wheat; [9]) | Sugarbeets plant response rating (sugar beet; [5]) | Plant response rating, Sugarbeets (sugar beet; Preemergence, Rate 62 g/ha) | Plant response rating, Sugarbeets (sugar beet; Preemergence, Rate 125 g/ha) | Sugarbeets plant response rating (sugar beet; [6]) | Sugarbeets plant response rating (sugar beet; [7]) | Sugarbeets plant response rating (sugar beet; [8]) | Sugarbeets plant response rating (sugar beet; [9]) | Plant response rating, Soybean (soybean; Preemergence, Rate 62 g/ha) | Plant response rating, Soybean (soybean; Preemergence, Rate 125 g/ha) | Soybean plant response rating (soybean; [6]) | Soybean plant response rating (soybean; [7]) | Velvetleaf plant response rating (velvetleaf; [5]) | Plant response rating, Velvetleaf (velvetleaf; Preemergence, Rate 62 g/ha) | Plant response rating, Velvetleaf (velvetleaf; Preemergence, Rate 125 g/ha) | Velvetleaf plant response rating (velvetleaf; [6]) | Velvetleaf plant response rating (velvetleaf; [7]) | Velvetleaf plant response rating (velvetleaf; [8]) | Velvetleaf plant response rating (velvetleaf; [9]) | Plant response rating, Rice (0 to 10 scale, 0 is no effect, 10 is complete control) (rice; [1]) | Rice plant response rating (0 to 10 scale, 0 is no effect, 10 is complete control) (rice; [2]) | Rice plant response rating (rice; [3]) | Rice plant response rating (rice; [4]) | Crabgrass plant response rating (crabgrass; [5]) | Plant response rating, Crabgrass (crabgrass; [11]) | Plant response rating, Crabgrass (crabgrass; [12]) | Crabgrass plant response rating (crabgrass; [6]) | Crabgrass plant response rating (crabgrass; [8]) | Crabgrass plant response rating (crabgrass; [9]) | Blackgrass plant response rating (blackgrass; [5]) | Plant response rating, Blackgrass (blackgrass; [11]) | Plant response rating, Blackgrass (blackgrass; [12]) | Blackgrass plant response rating (blackgrass; [6]) | Blackgrass plant response rating (blackgrass; [7]) | Blackgrass plant response rating (blackgrass; [8]) | Blackgrass plant response rating (blackgrass; [9]) | Corn plant response rating (corn; [5]) | Corn plant response rating (corn; [10]) | Plant response rating, Corn (corn; [11]) | Plant response rating, Corn (corn; [12]) | Corn plant response rating (corn; [6]) | Corn plant response rating (corn; [7]) | Corn plant response rating (corn; [8]) | Corn plant response rating (corn; [9])
2: Soybean plant response rating (soybean; [8]) | Crabgrass plant response rating (crabgrass; [10])
3: Cocklebur plant response rating (cocklebur; [10]) | Soybean plant response rating (soybean; [5]) | Soybean plant response rating (soybean; [9]) | Crabgrass plant response rating (crabgrass; [7]) | Blackgrass plant response rating (blackgrass; [10])
